{
  "source": "patent US9107851B2",
  "about": "“Solventless mixing process for coating pharmaceutical ingredients” (New Jersey Institute of Technology, priority 2012, dated 2015)",
  "test": "USP dissolution test (Apparatus II paddles, pH 7.2 phosphate buffer with SDS, 37° C.)",
  "type": "physicochemical",
  "conditions": "for Time to dissolve: uncoated; for Initial dissolution rate (—): grinding pressure 0",
  "description": "The coated API core particles have the taste of the API masked to allow easy swallowing or even chewing by patients. The API is still released from the coated API core particles in relatively short time. A USP Dissolution Test may be used to assess the release of API from the coated API core particles. The dissolution test employs a media of 7.2 pH phosphate buffer solution with 0.4 g/L sodium dodecyl sulfate (SDS, used to ensure wetting of the powders) at 37° C. and is carried out in USP Apparatus II (paddles) rotating at 50 RPM. The percentage of active pharmaceutical ingredient that is dissolved is measured over time. The coated API core particles can release the API in 30 minutes or less as measured in the USP Dissolution test, or in 20 minutes or less as measured in the USP dissolution test.",
  "data": [
    {"smiles": "O=C1O[C@H]([C@@H](O)CO)C(O)=C1O", "note": "[ascorbic acid]", "values": [
      {"measurement": "Time to dissolve", "setting": "Example 23: 45 μm-63 μm", "result": 10, "unit": "s"},
      {"measurement": "Time to dissolve", "setting": "Example 23: 90 μm-125 μm", "result": "less than 20 seconds"},
      {"measurement": "Time to dissolve", "setting": "Example 23: 150 μm-250 μm", "result": "less than 60 seconds"},
      {"measurement": "Time to dissolve", "setting": "Example 23: 425 μm-500 μm", "result": "less than 60 seconds"},
      {"measurement": "Initial dissolution rate (—)", "setting": "ascorbic acid initial d50 93 μm", "result": 9.16},
      {"measurement": "Initial dissolution rate (—)", "setting": "ascorbic acid initial d50 192 μm", "result": 7.764},
      {"measurement": "Initial dissolution rate (—)", "setting": "ascorbic acid initial d50 341 μm", "result": 4.053}
    ]}
  ]
}
